# Reference: BindingDB's records for doi:10.1021/jm0510934 (Abbott Laboratories, 2006)
# Molecular target: Growth hormone secretagogue receptor type 1 (Homo sapiens, UniProt Q92847)
# Test: Receptor Binding Studies and GHS-R Ca2+ Flux Assay
# Conditions: not given
# Experimental: Specific binding was determined by incubation of membranes from GHS-R1a transfected CHO-K cells with 125I-His9-ghrelin in the presence of increasing concentrations of compounds to obtain IC50. Fluorescence emissions from 96 wells were measured simultaneously at excitation and emission wavelength of 488 and 520 nm, respectively. During this time, agonist responses in the absence of ghrelin, or the antagonist effects of compounds on ghrelin-stimulated calcium flux were recorded. Sigmoidal curves were fitted and EC50/IC50 values were determined by GraphPad Prism software.
# Growth hormone secretagogue receptor type 1, sequence (Q92847 whole entry): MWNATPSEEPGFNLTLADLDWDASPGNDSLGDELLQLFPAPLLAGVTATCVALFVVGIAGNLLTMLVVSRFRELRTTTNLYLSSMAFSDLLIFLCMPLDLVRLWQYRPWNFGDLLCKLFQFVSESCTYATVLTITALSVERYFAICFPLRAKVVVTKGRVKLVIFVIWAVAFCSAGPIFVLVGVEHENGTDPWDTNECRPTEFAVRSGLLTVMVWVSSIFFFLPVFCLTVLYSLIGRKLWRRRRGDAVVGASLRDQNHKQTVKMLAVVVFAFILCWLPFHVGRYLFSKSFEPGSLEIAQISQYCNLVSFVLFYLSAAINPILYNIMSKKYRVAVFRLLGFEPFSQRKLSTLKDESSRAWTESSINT
row,IC50,SMILES
1,190 nM,"CCc1nc(N)nc(N)c1-c1ccc(CNc2ccc([N+](=O)[O-])cc2)cc1 [6-ethyl-5-(4-{[(4-nitrophenyl)amino]methyl}phenyl)pyrimidine-2,4-diamine]"
2,32 nM,"CCc1nc(N)nc(N)c1-c1ccc(N(C)Cc2ccc(S(C)(=O)=O)cc2)cc1 [6-ethyl-5-(4-{[(4-methanesulfonylphenyl)methyl](methyl)amino}phenyl)pyrimidine-2,4-diamine]"
3,700 nM,"CC(C)(C)CNc1ccc(-c2c(N)nc(N)nc2COCc2ccccc2)cc1 [6-[(benzyloxy)methyl]-5-{4-[(2,2-dimethylpropyl)amino]phenyl}pyrimidine-2,4-diamine]"
4,86 nM,"Nc1nc(N)c(-c2ccc(NCc3ccncc3)cc2)c(COCc2ccccc2)n1 [6-[(benzyloxy)methyl]-5-{4-[(pyridin-4-ylmethyl)amino]phenyl}pyrimidine-2,4-diamine]"
5,170 nM,"Nc1nc(N)c(-c2ccc(NCc3csc(Cl)c3)cc2)c(COCc2ccccc2)n1 [6-[(benzyloxy)methyl]-5-(4-{[(5-chlorothiophen-3-yl)methyl]amino}phenyl)pyrimidine-2,4-diamine]"
6,780 nM,"Nc1nc(N)c(-c2ccc(NCc3cnc4ccccc4c3)cc2)c(COCc2ccccc2)n1 [6-[(benzyloxy)methyl]-5-{4-[(quinolin-3-ylmethyl)amino]phenyl}pyrimidine-2,4-diamine]"
7,120 nM,"CCc1nc(N)nc(N)c1-c1ccc(CNc2ccc(S(C)(=O)=O)cc2)cc1 [6-ethyl-5-(4-{[(4-methanesulfonylphenyl)amino]methyl}phenyl)pyrimidine-2,4-diamine]"
8,320 nM,"Nc1nc(N)c(-c2ccc(NCc3ccc(Cl)s3)cc2)c(COCc2ccccc2)n1 [6-[(benzyloxy)methyl]-5-(4-{[(5-chlorothiophen-2-yl)methyl]amino}phenyl)pyrimidine-2,4-diamine]"
9,48 nM,"CS(=O)(=O)c1ccc(COc2ccc(-c3c(N)nc(N)nc3COCc3ccccc3)cc2)cc1 [6-[(benzyloxy)methyl]-5-{4-[(4-methanesulfonylphenyl)methoxy]phenyl}pyrimidine-2,4-diamine]"

# More lines, now with the values behind:
row,SMILES,IC50
1,"Nc1nc(N)c(-c2ccc(NCc3ccc(Cl)cc3)cc2)c(CCc2ccccc2)n1 [5-(4-{[(4-chlorophenyl)methyl]amino}phenyl)-6-(2-phenylethyl)pyrimidine-2,4-diamine]",3350 nM
2,"N#Cc1ccc(COc2ccc(-c3c(N)nc(N)nc3COCc3ccccc3)cc2)cc1 [2,4-diaminopyrimidine derivative, 10b]",3610 nM
3,"Nc1nc(N)c(-c2ccc(CNc3ccc([N+](=O)[O-])cc3)cc2)c(COCc2ccccc2)n1 [6-[(benzyloxy)methyl]-5-(4-{[(4-nitrophenyl)amino]methyl}phenyl)pyrimidine-2,4-diamine]",16 nM
4,"Nc1nc(N)c(-c2ccc(NCc3ccccc3)cc2)c(COCc2ccccc2)n1 [5-[4-(benzylamino)phenyl]-6-[(benzyloxy)methyl]pyrimidine-2,4-diamine]",980 nM
5,"CCc1nc(N)nc(N)c1-c1ccc(NCc2ccc(S(C)(=O)=O)cc2)c(Cl)c1 [5-(3-chloro-4-{[(4-methanesulfonylphenyl)methyl]amino}phenyl)-6-ethylpyrimidine-2,4-diamine]",11 nM
6,"CCc1nc(N)nc(N)c1-c1ccc(NCc2ccc(S(C)(=O)=O)cc2)c(Br)c1 [5-(3-bromo-4-{[(4-methanesulfonylphenyl)methyl]amino}phenyl)-6-ethylpyrimidine-2,4-diamine]",42 nM
7,"COc1ccc(CNc2ccc(-c3c(N)nc(N)nc3COCc3ccccc3)cc2)cc1 [6-[(benzyloxy)methyl]-5-(4-{[(4-methoxyphenyl)methyl]amino}phenyl)pyrimidine-2,4-diamine]",90 nM

# Same assay, conditions: pH 7.4; 22 °C
row,IC50,SMILES
1,5.8 nM,"Nc1nc(N)c(-c2ccc(NCc3ccc([N+](=O)[O-])cc3)cc2)c(COCc2ccccc2)n1 [6-[(benzyloxy)methyl]-5-(4-{[(4-nitrophenyl)methyl]amino}phenyl)pyrimidine-2,4-diamine]"
2,690 nM,"CCc1nc(N)nc(N)c1-c1ccc(NCc2ccc(S(=O)(=O)C(F)(F)F)cc2)cc1 [6-ethyl-5-[4-({[4-(trifluoromethane)sulfonylphenyl]methyl}amino)phenyl]pyrimidine-2,4-diamine]"
3,85 nM,"Nc1nc(N)c(-c2ccc(NCc3ccc(S(=O)(=O)C(F)(F)F)cc3)cc2)c(COCc2ccccc2)n1 [6-[(benzyloxy)methyl]-5-[4-({[4-(trifluoromethane)sulfonylphenyl]methyl}amino)phenyl]pyrimidine-2,4-diamine]"
4,12 nM,"CCc1nc(N)nc(N)c1-c1ccc(NCc2ccc(S(C)(=O)=O)cc2)cc1 [6-ethyl-5-(4-{[(4-methanesulfonylphenyl)methyl]amino}phenyl)pyrimidine-2,4-diamine]"
5,23 nM,"CCc1nc(N)nc(N)c1-c1ccc(NCc2ccc([N+](=O)[O-])cc2)cc1 [6-ethyl-5-(4-{[(4-nitrophenyl)methyl]amino}phenyl)pyrimidine-2,4-diamine]"
6,97 nM,"Nc1nc(N)c(-c2ccc(NCc3ccc(C(F)(F)F)cc3)cc2)c(COCc2ccccc2)n1 [6-[(benzyloxy)methyl]-5-[4-({[4-(trifluoromethyl)phenyl]methyl}amino)phenyl]pyrimidine-2,4-diamine]"

# More lines, now with the values behind:
row,SMILES,IC50
1,"CC(=O)c1ccc(CNc2ccc(-c3c(N)nc(N)nc3COCc3ccccc3)cc2)cc1 [1-(4-{[(4-{2,4-diamino-6-[(benzyloxy)methyl]pyrimidin-5-yl}phenyl)amino]methyl}phenyl)ethan-1-one]",10 nM
2,CS(=O)(=O)c1ccc(CNc2ccc(-c3c(N)nc(N)nc3COCc3ccccc3)cc2)cc1,7.2 nM
3,"CCc1nc(N)nc(N)c1-c1ccc(NCc2ccc(C(C)O)cc2)cc1 (stereo unspecified) [1-[4-({[4-(2,4-diamino-6-ethylpyrimidin-5-yl)phenyl]amino}methyl)phenyl]ethan-1-ol]",110 nM
4,"CCc1nc(N)nc(N)c1-c1ccc(NCc2ccnc(Cl)c2)cc1 [5-(4-{[(2-chloropyridin-4-yl)methyl]amino}phenyl)-6-ethylpyrimidine-2,4-diamine]",220 nM
5,"Nc1nc(N)c(-c2ccc(NCc3ccc(Cl)cc3)cc2)c(COCc2ccccc2)n1 [6-[(benzyloxy)methyl]-5-(4-{[(4-chlorophenyl)methyl]amino}phenyl)pyrimidine-2,4-diamine]",180 nM
6,"CCc1nc(N)nc(N)c1-c1ccc(NCc2ccc(C(C)=O)cc2)cc1 [1-[4-({[4-(2,4-diamino-6-ethylpyrimidin-5-yl)phenyl]amino}methyl)phenyl]ethan-1-one]",110 nM
7,"CCc1nc(N)nc(N)c1-c1ccc(NCc2ccc(Cl)cc2)cc1 [5-(4-{[(4-chlorophenyl)methyl]amino}phenyl)-6-ethylpyrimidine-2,4-diamine]",1380 nM
8,"CCc1nc(N)nc(N)c1-c1ccc(NCc2csc(Cl)c2)cc1 [5-(4-{[(5-chlorothiophen-3-yl)methyl]amino}phenyl)-6-ethylpyrimidine-2,4-diamine]",790 nM
9,"CCc1nc(N)nc(N)c1-c1ccc(NCc2ccc(C#N)cc2)cc1 [4-({[4-(2,4-diamino-6-ethylpyrimidin-5-yl)phenyl]amino}methyl)benzonitrile]",780 nM
10,"Nc1nc(N)c(-c2ccc(NCc3ccnc(Cl)c3)cc2)c(COCc2ccccc2)n1 [6-[(benzyloxy)methyl]-5-(4-{[(2-chloropyridin-4-yl)methyl]amino}phenyl)pyrimidine-2,4-diamine]",3.6 nM
11,"N#Cc1ccc(CNc2ccc(-c3c(N)nc(N)nc3COCc3ccccc3)cc2)cc1 [4-{[(4-{2,4-diamino-6-[(benzyloxy)methyl]pyrimidin-5-yl}phenyl)amino]methyl}benzonitrile]",19 nM
12,"CCc1nc(N)nc(N)c1-c1ccc(NCc2cc(F)c(S(C)(=O)=O)c(F)c2)cc1 [5-(4-{[(3,5-difluoro-4-methanesulfonylphenyl)methyl]amino}phenyl)-6-ethylpyrimidine-2,4-diamine]",45 nM

# Same assay, conditions: pH 7.4; 22 °C; read-out: IC50
row,SMILES,IC50
1,"CCc1nc(N)nc(N)c1-c1ccc(NCc2ccc(S(=O)(=O)C(F)(F)F)cc2)cc1 [6-ethyl-5-[4-({[4-(trifluoromethane)sulfonylphenyl]methyl}amino)phenyl]pyrimidine-2,4-diamine]",21 nM
2,"Nc1nc(N)c(-c2ccc(NCc3ccc(S(=O)(=O)C(F)(F)F)cc3)cc2)c(COCc2ccccc2)n1 [6-[(benzyloxy)methyl]-5-[4-({[4-(trifluoromethane)sulfonylphenyl]methyl}amino)phenyl]pyrimidine-2,4-diamine]",1 nM
